Measurements: patent publication US6737383B1, “Herbicidal oxadiazolidines” (priority 1999, dated 2004)

Tests used:
pigweed = test: Test B pre/postemergence pigweed; format: in vivo, Amaranthus retroflexus; conditions: for Redroot pigweed plant response rating (0 to 10 scale): 0 is no effect
Summary of the method: (§1)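 Herbicidal effect was estimated by eye on a ten-point control scale after plants spent twelve to sixteen days in a greenhouse following soil or foliar treatment. Foliar sprays targeted plants at one to four leaves; all doses were formulated in a non-phytotoxic solvent with surfactant.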

rape = test: Test B pre/postemergence rape; format: in vivo, Brassica napus; conditions: for Rape plant response rating (0 to 10 scale): 0 is no effect
Summary of the method: as §1

sugar beet = test: Test B pre/postemergence sugar beet; format: in vivo, Beta vulgaris; conditions: for Sugarbeets plant response rating (0 to 10 scale): 0 is no effect
Summary of the method: as §1

[1] = Postemergence, Rate 125 g/ha, scale of 0 to 10 where 0 is no effect and 10 is complete control
[2] = Postemergence, Rate 1000 g/ha, scale 0 to 10 (0 no effect, 10 complete control)
[3] = Preemergence, Rate 62 g/ha, scale 0 to 10 (0 no effect, 10 complete control)
[4] = Preemergence, Rate 125 g/ha, scale 0 to 10 (0 no effect, 10 complete control)
[5] = Preemergence, Rate 250 g/ha, scale of 0 to 10 where 0 is no effect and 10 is complete control
[6] = Preemergence, Rate 500 g/ha, scale 0 (no effect) to 10 (complete control)
[7] = Rate 62 g/ha, Postemergence, scale of 0 to 10 where 0 is no effect and 10 is complete control
[8] = Rate 250 g/ha, Postemergence, scale 0 to 10, 0 is no effect, 10 is complete control
[9] = Rate 500 g/ha, Postemergence, scale 0 to 10, 0 no effect, 10 complete control
[10] = Rate 1000 g/ha, Preemergence, scale 0 to 10 (0 no effect, 10 complete control)
[11] = Postemergence, Rate 250 g/ha, scale 0 to 10, 0 no effect, 10 complete control
[12] = Preemergence, Rate 125 g/ha, 10 is complete control
[13] = Preemergence, Rate 500 g/ha, scale 0 to 10 (0 no effect, 10 complete control)
[14] = Preemergence, Rate 250 g/ha, scale 0 to 10, 0 is no effect, 10 is complete control
[15] = Rate 500 g/ha, Postemergence, scale 0 to 10
[16] = Preemergence, Rate 31 g/ha, visual rating, scale 0 to 10 (0 no effect, 10 complete control)
[17] = Rate 31 g/ha, Postemergence, scale 0 to 10
[18] = Preemergence, Rate 62 g/ha, scale of 0 to 10 where 0 is no effect and 10 is complete control
[19] = Rate 125 g/ha, Postemergence, scale 0 to 10

Compound	Redroot pigweed plant response rating (pigweed; [1])	Redroot pigweed plant response rating (pigweed; [3])	Plant response rating, Redroot pigweed (pigweed; [4])	Plant response rating, Redroot pigweed (pigweed; [5])	Redroot pigweed plant response rating (pigweed; [7])	Plant response rating, Redroot pigweed (pigweed; [8])	Redroot pigweed plant response rating (pigweed; [9])	Rape plant response rating (rape; [1])	Rape plant response rating (rape; [11])	Rape plant response rating (rape; [3])	Plant response rating, Rape (rape; [4])	Plant response rating, Rape (rape; [5])	Rape plant response rating (rape; [7])	Rape plant response rating (rape; [9])	Sugarbeets plant response rating (sugar beet; [1])	Sugarbeets plant response rating (sugar beet; [3])	Sugarbeets plant response rating (0 to 10 scale) (sugar beet; [12])	Plant response rating, Sugarbeets (sugar beet; [5])	Sugarbeets plant response rating (sugar beet; [7])	Plant response rating, Sugarbeets (sugar beet; [8])	other results
CC(C)N(C(=O)n1oc(=O)n(C2CCCCC2C(F)(F)F)c1=O)c1ccc(F)cc1 (centres unmarked) [Compound 99]	4	0	0	4	3	5	7	2	4	0	0	0	2	6	4	0	2	2	2	4	Redroot pigweed plant response rating (pigweed; [2]): 7; Redroot pigweed plant response rating (pigweed; [6]): 10; Plant response rating, Redroot pigweed (pigweed; [10]): 10; Rape plant response rating (rape; [2]): 7; Rape plant response rating (rape; [6]): 3; Plant response rating, Rape (rape; [10]): 6; Sugarbeets plant response rating (sugar beet; [2]): 5; Sugarbeets plant response rating (sugar beet; [6]): 4; Sugarbeets plant response rating (sugar beet; [9]): 5; Plant response rating, Sugarbeets (sugar beet; [10]): 6
CCc1noc(CC)c1-n1c(=O)on(C(=O)N(c2ccc(F)cc2)C(C)C)c1=O [Compound 102]	0	0	0	0	0	0	0	0	0	0	0	0	0	0	0	0	0	0	0	0	Sugarbeets plant response rating (sugar beet; [9]): 0
Cc1nn(C)c(C)c1-n1c(=O)on(C(=O)N(c2ccccc2)C(C)C)c1=O [Compound 120]	0	7	8	8	0	0	3	0	0	0	0	0	0	0	0	0	2	4	0	0	Redroot pigweed plant response rating (pigweed; [13]): 8; Rape plant response rating (rape; [13]): 3; Sugarbeets plant response rating (sugar beet; [13]): 7; Sugarbeets plant response rating (sugar beet; [9]): 0
Cc1cnn(C)c1-n1c(=O)on(C(=O)N(c2ccc(F)cc2)C(C)C)c1=O [Compound 125]	0	0	–	–	0	0	–	0	–	0	–	–	0	–	0	0	0	–	0	0	Redroot pigweed plant response rating (0 to 10 scale) (pigweed; [12]): 0; Redroot pigweed plant response rating (pigweed; [14]): 0; Redroot pigweed plant response rating (pigweed; [13]): 0; Redroot pigweed plant response rating (pigweed; [15]): 0; Rape plant response rating (0 to 10 scale) (rape; [12]): 0; Rape plant response rating (rape; [14]): 0; Rape plant response rating (rape; [13]): 0; Plant response rating, Rape (rape; [8]): 0; Rape plant response rating (rape; [15]): 0; Sugarbeets plant response rating (sugar beet; [14]): 0; Sugarbeets plant response rating (sugar beet; [13]): 0; Sugarbeets plant response rating (sugar beet; [15]): 0
Cc1noc(C)c1-n1c(=O)on(C(=O)N(c2ccc(F)cc2)C(C)C)c1=O [Compound 155]	0	0	–	–	0	0	–	0	–	0	–	–	0	–	0	0	0	–	0	0	Redroot pigweed plant response rating (pigweed; [16]): 0; Redroot pigweed plant response rating (0 to 10 scale) (pigweed; [12]): 0; Redroot pigweed plant response rating (pigweed; [14]): 3; Redroot pigweed plant response rating (pigweed; [17]): 0; Rape plant response rating (rape; [16]): 0; Rape plant response rating (0 to 10 scale) (rape; [12]): 0; Rape plant response rating (rape; [14]): 0; Rape plant response rating (rape; [17]): 0; Plant response rating, Rape (rape; [8]): 0; Sugarbeets plant response rating (sugar beet; [16]): 0; Sugarbeets plant response rating (sugar beet; [14]): 0
COc1nc(OC)nc(N(C(=O)n2oc(=O)n(C(C)C)c2=O)C(C)C)n1 [Compound 182]	–	–	–	–	0	–	–	–	–	–	–	–	0	–	–	–	0	–	0	–	Redroot pigweed plant response rating (pigweed; [18]): 0; Redroot pigweed plant response rating (0 to 10 scale) (pigweed; [12]): 0; Redroot pigweed plant response rating (pigweed; [14]): 0; Redroot pigweed plant response rating (pigweed; [13]): 0; Redroot pigweed plant response rating (pigweed; [19]): 0; Plant response rating (0 to 10; 0 is no effect, 10 is complete control), Redroot pigweed (pigweed; Rate 250 g/ha, Postemergence): 0; Redroot pigweed plant response rating (pigweed; [15]): 0; Rape plant response rating (rape; [18]): 0; Rape plant response rating (0 to 10 scale) (rape; [12]): 0; Rape plant response rating (rape; [14]): 0; Rape plant response rating (rape; [13]): 0; Rape plant response rating (rape; [19]): 0; Plant response rating (0 to 10; 0 is no effect, 10 is complete control), Rape (rape; Rate 250 g/ha, Postemergence): 0; Rape plant response rating (rape; [15]): 0; Sugarbeets plant response rating (sugar beet; [18]): 0; Sugarbeets plant response rating (sugar beet; [14]): 0; Sugarbeets plant response rating (sugar beet; [13]): 0; Sugarbeets plant response rating (sugar beet; [19]): 0; Plant response rating (0 to 10; 0 is no effect, 10 is complete control), Sugarbeets (sugar beet; Rate 250 g/ha, Postemergence): 0; Sugarbeets plant response rating (sugar beet; [15]): 0
